Results from paper PMC10599528, “GPC-100, a novel CXCR4 antagonist, improves in vivo hematopoietic cell mobilization when combined with propranolol” (PLOS ONE, 2023).
Read-outs that look alike come from different tables or passages of the source.

B1: G-CSF: Granulocyte-colony stimulating factor; recombinant murine G-CSF in the mouse studies (protein, UniProt P09920 31-208, looked up)
Granulocyte …: VPLVTVSALPPSLPLPRSFLLKSLEQVRKIQASGSVLLEQLCATYKLCHPEELVLLGHSLGIPKASLSGCSSQALQQTQCLSQLHSGLCLYQGLLQALSGISPALAPTLDLLQLDVANFATTIWQQMENLGVAPTVQPTQSAMPAFTSAFQRRAGGVLAISYLQGFLETARLALHHLA

Assays:
CXCR4 and β2AR = assay: Calcium flux in MDA-MB-231 cells endogenously expressing CXCR4 and β2AR, CXCL12 plus epinephrine; assay type: cell-based; details: 10 μM of each antagonist; 200 nM CXCL12, 10 μM epinephrine
Method: MDA-MB-231 cells endogenously expressing CXCR4 and β2AR, or transduced with adenoviruses encoding CXCR4 for overexpression were used for calcium flux. Cells were cultured for 2 days prior to running the assay and seeded at 8×10^4 cells/well in a 96-well black clear-bottom microplate. The following day, cells were stained with Cal-520 AM (AAT Bioquest) for 2 h at 37°C and treated with antagonists for 30 min followed by agonist stimulation. Intracellular calcium flux was measured using a Flexstation 3 microplate reader (Molecular Devices).

MM.1S cells = assay: CXCL12-induced transwell migration of MM.1S cells; details: Homo sapiens, MM1.S, 4 h, read-out: IC50, blockade of CXCL12-induced migration
Method: (§1) Cells were allowed to migrate toward CXCL12 in the presence or absence of the antagonists for 4 h (MM.1S) or 24 h (U937) at 37°C. The migration of U937 cells was measured using PrestoBlue Cell Viability Reagent (Invitrogen). For MM.1S cell line, the migrated cells were counted by flow cytometry. The fluorescence intensity (560 nm/590 nm excitation/emission) was detected using a Varioskan LUX Multimode Microplate Reader.
MM.1S (A) or U937 (B) cells were
(§2) suspended in serum-free media containing 0.5% BSA at 5X106 cells/ml and 100 μl of cell
(§3) suspension was added to transwell insert. SDF-1/CXCL12 at the indicated concentrations in 800
(§4) μl of serum-free media containing 0.5% BSA was added to the lower chamber of the transwell.
(§5) The transwell insert with 100 μl cell suspension was put on the lower chamber very carefully
(U937) to allow cell migration.

U937 cells = assay: CXCL12-mediated transwell migration of U937 cells; details: Homo sapiens, U-937, 24 h, read-out: IC50, blockade of CXCL12-mediated migration
Method: as §1
MM.1S (A) or U937 (B) cells were
as §2, §3, §4, §5
(U937) to allow cell migration.

circulating WBCs [1] = assay: In vivo WBC mobilization to peripheral blood (CBC analysis); set-up: species or system C57BL/6J mice
Method: Studies were performed at a facility accredited by the Association for Assessment and Accreditation of Laboratory Animal Care and in strict accordance with the recommendations in the Guide for the Care and Use of Laboratory Animals of the National Institute of Health. […] C57BL/6J mice (female, 6–9 weeks old) were ordered from Jackson Laboratories and allowed to habituate for one week before handling. They were housed 5 per cage and had free access to food and water.
Mice were monitored daily and weighed prior to drug administration. Based on the body weight data, mice were randomized into groups using the randomization tool in Benchling Studies randomization software. PB was collected by submental bleeding (non-terminal) or cardiac puncture (terminal). For terminal blood collections, mice were placed in an induction chamber with 2.5–4% isoflurane and then a maintenance dose of 2–3% through a nose cone. A toe pinch on all four quadrants was applied to confirm the surgical plane of anesthesia. Upon completion of terminal blood collection from cardiac puncture, the mice were euthanized via cervical dislocation while still under the effects of isoflurane. Approximately 25 μL blood was used for CBC analysis and the remaining blood was processed for flow cytometry or colony forming unit (CFU) assay. For non-terminal submental bleeding, a 4mm lancet was used to puncture the linguofacialis vein under the chin. […] For the time-course of mobilization, each mouse was bled twice. Submental bleeding was performed at 0.5 h, 1 h or 2 h after the respective dosing and cardiac puncture was performed at 3 h, 4 h and 6 h post-dose.
Blood samples were processed for complete blood count (CBC) analysis using the Abaxis VetScan HM5 hematology analyzer (Abaxis), which reports 18-parameters including WBC, lymphocytes, neutrophils, monocytes, platelets, hemoglobin, RBC and morphology.

circulating WBCs [2] = details: mice, 5 mg/kg SC; cited from earlier work
CD34+ cells = details: at least; cited from earlier work

Row | Molecule | inhibition of synergistic calcium flux induced by CXCL12 and epinephrine (CXCR4 and β2AR) | IC50 (MM.1S cells) | IC50 (U937 cells) | increase in circulating WBCs compared to the vehicle (circulating WBCs [1]; 1 hour post-drug, GPC-100 30 mg/kg IV, AMD3100 5 mg/kg SC, single injection) | time of peak mobilization (circulating WBCs [1]; time-course 30 min to 6 hours post-drug, GPC-100 30 mg/kg IV, AMD3100 5 mg/kg SC) | time of peak mobilization (circulating WBCs [2]) | increase in WBC mobilization (circulating WBCs [1]; G-CSF 0.1 mg/kg SC BID days 2-6, propranolol 20 mg/kg IP 7 days, GPC-100 30 mg/kg IV or AMD3100 5 mg/kg SC day 7) | MM patients in whom an optimal number of HSC is not mobilized (CD34+ cells)
1 | CC(C)NCC(O)COc1cccc2ccccc12 (stereo not drawn) [propranolol] | partially inhibited | – | – | – | – | – | – | –
2 | c1cc(CN2CCCNCCNCCCNCC2)ccc1CN1CCCNCCNCCCNCC1 [AMD3100] | partially inhibited | 0.08 µM | 0.042 µM | 3 fold | 2 h | 1 h | – | –
3 | B1 | – | – | – | – | – | – | 4.5 fold | 40–50%
